We go through 13 compounds from patent publication US11890288B2, “Sulfonamide or sulfinamide compound having effect of inducing BRD4 protein degradation and pharmaceutical use thereof” (MITSUBISHI TANABE PHARMA CORPORATION, priority 2020, dated 2024).

The structures appear in SMILES notation. Marks after values point to notes of the source that are not given here.

For test [1], the system named is human prostate cancer LNCaP cells. Briefly: Cytotoxic action on LNCaP cells (WST-8, 96 hr). In kind it is cell-based. Particulars: 96 hr culture. A digest of the protocol:
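Cells in 10% FBS/RPMI1640 plated overnight at 37° C, 5% CO2, then exposed to compound (DMSO stock diluted in medium) for 96 hr. Viable cells measured by WST-8. IC50 = concentration giving 50% survival versus untreated, interpolated linearly between the two bracketing points.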
(In general: Formazan colour is commonly taken as a measure of viable cells.)

A further test deals with BRD4 protein (Homo sapiens (Human), UniProt O60885). The test is described as follows: BRD4 protein degradation inducing action in LNCaP cells (immunofluorescence, 6 hr). Particulars: anti-BRD4 fluorescence intensity. In kind it is cell-based. A digest of the protocol: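 LNCaP cells in 10% FBS/RPMI1640 exposed to compound for 6 hr, fixed, permeabilized and immunostained for BRD4 with Alexa Fluor 546 secondary; fluorescence (ex 560, em 572 nm) read by imaging. DC50 = concentration giving 50% of untreated signal, interpolated linearly between the two bracketing points.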

Test [2] deals with human acute myeloid leukemia MV-4-11 cell transplanted mouse. The test is described as follows: Antitumor effect of 1 week intermittent administration to MV-4-11 cell transplanted mouse (tail vein, days 1 and 8). To be noted: tumor weight on day 15. In kind it is in vivo. How it is done: The in vivo antitumor effect of the compound of the present invention was studied using human acute myeloid leukemia MV-4-11 cell transplanted mouse. MV-4-11 cells were subcutaneously transplanted into the inguinal region of male, 6-week-old BALB/c nude mouse (5×10^6 cells/mouse). The compound of the present invention was administered into the tail vein on days 1 and 8 from the time point when the assumed tumor volume determined from ½ab^2 (a is major axis and b is minor axis of tumor) reached about 200 mm^3 (day 1). The control group was administered with a solvent, 10% Kolliphor ELP/5% ethanol/85% saline solution. On day 15, the tumor was isolated, the weight was measured, and the tumor growth inhibitory rate IR (%) was calculated by the following formula. tumor growth inhibitory rate IR (%)={1−(average tumor weight of administration group/average tumor weight of nonadministration control group)}×100(%)

In test [1], `COC(=O)C[C@@H]1N=C(c2ccc(-c3ccc(C(=O)NCc4ccc(S(=O)(=O)Nc5ccc(C)c6c(C#N)c[nH]c56)cc4)c(F)c3F)cc2)c2c(sc(C)c2C)-n2c(C)nnc21` [Example 74, methyl [(6S)-4-{4′-[({4-[(3-cyano-4-methyl-1H-indol-7-yl)sulfamoyl]phenyl}methyl)carbamoyl]-2′,3′-difluoro[1,1′-biphenyl]-4-yl}-2,3,9-trimethyl-6H-thieno[3,2-f][1,2,4]triazolo[4,3-a][1,4]diazepin-6-yl]acetate] came in with an IC50 of 0.21 nM. The same compound had a DC50 on BRD4 protein of 0.092 nM. Moreover, the results for the “tumor growth inhibitory rate” value in test [2] (4 mg/kg/day) and in test [2] (12.5 mg/kg/day) were 43** % and 94** %, respectively.

In test [1], `COC(=O)C[C@@H]1N=C(c2ccc(-c3ccc(C(=O)NCc4ccc(S(=O)(=O)Nc5ccc(C)c6c(C#N)c[nH]c56)cc4)cc3Cl)cc2)c2c(sc(C)c2C)-n2c(C)nnc21` [Example 47, methyl [(6S)-4-{2′-chloro-4′-[({4-[(3-cyano-4-methyl-1H-indol-7-yl)sulfamoyl]phenyl}methyl)carbamoyl][1,1′-biphenyl]-4-yl}-2,3,9-trimethyl-6H-thieno[3,2-f][1,2,4]triazolo[4,3-a][1,4]diazepin-6-yl]acetate] came in with an IC50 of 0.46 nM. Further, on BRD4 protein, the DC50 came out at 0.3 nM. Besides, the “tumor growth inhibitory rate” value was 32* % in test [2] (4 mg/kg/day) and 68** % in test [2] (12.5 mg/kg/day).

For the compound `CCc1ccc(NS(=O)(=O)c2ccc([C@@H](C)NC(=O)c3cnc(-c4ccc(C5=N[C@@H](CC(=O)OC)c6nnc(C)n6-c6sc(C)c(C)c65)cc4)cn3)cc2)c2[nH]cc(C#N)c12` [Example 106, methyl {(6S)-4-[4-(5-{[(1R)-1-{4-[(3-cyano-4-ethyl-1H-indol-7-yl)sulfamoyl]phenyl}ethyl]carbamoyl}pyrazin-2-yl)phenyl]-2,3,9-trimethyl-6H-thieno[3,2-f][1,2,4]triazolo[4,3-a][1,4]diazepin-6-yl}acetate], the half-maximal inhibitory concentration (IC50) in test [1] worked out at 0.079 nM. Also, the 50% degradation concentration (DC50) on BRD4 protein was 0.059 nM. The “tumor growth inhibitory rate” value in test [2] (4 mg/kg/day) was 96** %; in test [2] (12.5 mg/kg/day) it was 98** %.

The compound `Cc1sc2c(c1C)C(c1ccc(-c3ccc(C(=O)NCc4ccc(S(=O)(=O)Nc5ccc(C)c6c(C#N)c[nH]c56)cc4)cc3)cc1)=N[C@@H](CC(=O)NCCO)c1nnc(C)n1-2` [Example 37, N-({4-[(3-cyano-4-methyl-1H-indol-7-yl)sulfamoyl]phenyl}methyl)-4′-[(6S)-6-{2-[(2-hydroxyethyl)amino]-2-oxoethyl}-2,3,9-trimethyl-6H-thieno[3,2-f][1,2,4]triazolo[4,3-a][1,4]diazepin-4-yl][1,1′-biphenyl]-4-carboxamide] gave a half-maximal inhibitory concentration (IC50) in test [1] of 3 nM. Moreover, the DC50 on BRD4 protein is 1.4 nM.

Regarding `COC(=O)C[C@@H]1N=C(c2ccc(-c3ccc(C(=O)NCC#Cc4ccc(S(=O)(=O)Nc5ccc(C)c6c(C#N)c[nH]c56)cc4)cc3)cc2)c2c(sc(C)c2C)-n2c(C)nnc21` [Example 31, methyl [(6S)-4-{4′-[(3-{4-[(3-cyano-4-methyl-1H-indol-7-yl)sulfamoyl]phenyl}prop-2-yn-1-yl)carbamoyl][1,1′-biphenyl]-4-yl}-2,3,9-trimethyl-6H-thieno[3,2-f][1,2,4]triazolo[4,3-a][1,4]diazepin-6-yl]acetate], in test [1], it took 4.2 nM to reach half-maximal inhibition (IC50). For the same compound, the DC50 at BRD4 protein was 5.9 nM.

Turning to `COC(=O)C[C@@H]1N=C(c2ccc(-c3ccc(C(=O)NCc4ccc(S(=O)(=O)Nc5ccc(C)c6c(C#N)c[nH]c56)cc4)c(Cl)c3)cc2)c2c(sc(C)c2C)-n2c(C)nnc21` [Example 3, methyl [(6S)-4-{3′-chloro-4′-[({4-[(3-cyano-4-methyl-1H-indol-7-yl)sulfamoyl]phenyl}methyl)carbamoyl][1,1′-biphenyl]-4-yl}-2,3,9-trimethyl-6H-thieno[3,2-f][1,2,4]triazolo[4,3-a][1,4]diazepin-6-yl]acetate], in test [1], the IC50 turned out to be 0.092 nM. At BRD4 protein, it took 0.42 nM to reach half-maximal degradation (DC50).

With `CCc1ccc(NS(=O)(=O)c2ccc(CCNC(=O)c3ccc(-c4ccc(C5=N[C@@H](CC(=O)OC(C)(C)C)c6nnc(C)n6-c6sc(C)c(C)c65)cc4)cc3)cc2)c2[nH]cc(C#N)c12` [Example Compound 137, t-butyl [(6S)-4-{4′-[(2-{4-[(3-cyano-4-ethyl-1H-indol-7-yl)sulfamoyl]phenyl}ethyl)carbamoyl][1,1′-biphenyl]-4-yl}-2,3,9-trimethyl-6H-thieno[3,2-f][1,2,4]triazolo[4,3-a][1,4]diazepin-6-yl]acetate], the concentration for half-maximal inhibition (IC50) in test [1] came to 0.48 nM. It took 0.13 nM to reach half-maximal degradation on BRD4 protein (DC50).

Take `CCc1ccc(NS(=O)(=O)c2ccc(CCNC(=O)c3ccc(-c4ccc(C5=N[C@@H](CC(=O)OC)c6nnc(C)n6-c6sc(C)c(C)c65)cc4)c(F)c3F)cc2)c2[nH]cc(C#N)c12` [Example Compound 125, methyl [(6S)-4-{4′-[(2-{4-[(3-cyano-4-ethyl-1H-indol-7-yl)sulfamoyl]phenyl}ethyl)carbamoyl]-2′,3′-difluoro[1,1′-biphenyl]-4-yl}-2,3,9-trimethyl-6H-thieno[3,2-f][1,2,4]triazolo[4,3-a][1,4]diazepin-6-yl]acetate]: the half-maximal inhibitory concentration (IC50) in test [1] amounted to 0.37 nM. The compound also displayed a half-maximal degradation concentration (DC50) at BRD4 protein of 0.17 nM.

Consider `CCc1ccc(NS(=O)(=O)c2ccc(CNC(=O)c3ccc(-c4ccc(C5=N[C@@H](CC(=O)OC)c6nnc(C)n6-c6sc(C)c(C)c65)cc4)cc3F)cc2)c2[nH]cc(C#N)c12` [Example 112, methyl [(6S)-4-{4′-[({4-[(3-cyano-4-ethyl-1H-indol-7-yl)sulfamoyl]phenyl}methyl)carbamoyl]-3′-fluoro[1,1′-biphenyl]-4-yl}-2,3,9-trimethyl-6H-thieno[3,2-f][1,2,4]triazolo[4,3-a][1,4]diazepin-6-yl]acetate], for which, in test [1], the 50% inhibitory concentration (IC50) turned out to be 0.44 nM. The same compound registered a half-maximal degradation concentration (DC50) at BRD4 protein of 0.25 nM.

As for `COC(=O)C[C@@H]1N=C(c2ccc(-c3ccc(C(=O)NCc4ccc(S(=O)(=O)Nc5ccc(C)c6c(C#N)c[nH]c56)cc4C)cc3)cc2)c2c(sc(C)c2C)-n2c(C)nnc21` [Example 94, methyl [(6S)-4-{4′-[({4-[(3-cyano-4-methyl-1H-indol-7-yl)sulfamoyl]-2-methylphenyl}methyl)carbamoyl][1,1′-biphenyl]-4-yl}-2,3,9-trimethyl-6H-thieno[3,2-f][1,2,4]triazolo[4,3-a][1,4]diazepin-6-yl]acetate], the IC50 in test [1] came to 0.42 nM. On BRD4 protein, this compound gave a 50% degradation concentration (DC50) of 0.13 nM.

Compound `Cc1sc2c(c1C)C(c1ccc(-c3ccc(C(=O)NCCc4ccc(S(=O)(=O)Nc5ccc(C)c6c(C#N)c[nH]c56)cc4)cc3)cc1)=N[C@@H](CC(=O)OC(C)(C)C)c1nnc(C)n1-2` [Example 64, t-butyl [(6S)-4-{4′-[(2-{4-[(3-cyano-4-methyl-1H-indol-7-yl)sulfamoyl]phenyl}ethyl)carbamoyl][1,1′-biphenyl]-4-yl}-2,3,9-trimethyl-6H-thieno[3,2-f][1,2,4]triazolo[4,3-a][1,4]diazepin-6-yl]acetate] gave an IC50 in test [1] of 0.25 nM. Further, it took 0.13 nM to reach half-maximal degradation at BRD4 protein (DC50).

With `COC(=O)C[C@@H]1N=C(c2ccc(-c3ccc(C(=O)NCCc4ccc(S(=O)(=O)Nc5ccc(C)c6c(C#N)c[nH]c56)cc4)c(F)c3)cc2)c2c(sc(C)c2C)-n2c(C)nnc21` [Example 40, methyl [(6S)-4-{4′-[(2-{4-[(3-cyano-4-methyl-1H-indol-7-yl)sulfamoyl]phenyl}ethyl)carbamoyl]-3′-fluoro[1,1′-biphenyl]-4-yl}-2,3,9-trimethyl-6H-thieno[3,2-f][1,2,4]triazolo[4,3-a][1,4]diazepin-6-yl]acetate], the IC50 in test [1] is 0.42 nM. On BRD4 protein, this compound registered a half-maximal degradation concentration (DC50) of 0.19 nM.

For the compound `Cc1sc2c(c1C)C(c1ccc(-c3ccc(C(=O)NCc4ccc(S(=O)(=O)Nc5ccc(C)c6c(C#N)c[nH]c56)cc4)nn3)cc1)=N[C@@H](CC(=O)OC(C)(C)C)c1nnc(C)n1-2` [Example Compound 150, t-butyl [(6S)-4-(4-{6-[({4-[(3-cyano-4-methyl-1H-indol-7-yl)sulfamoyl]phenyl}methyl)carbamoyl]pyridazin-3-yl}phenyl)-2,3,9-trimethyl-6H-thieno[3,2-f][1,2,4]triazolo[4,3-a][1,4]diazepin-6-yl]acetate], the IC50 in test [1] was determined as 0.43 nM. For the same compound, the DC50 at BRD4 protein worked out at 0.12 nM.

The IC50 is the concentration at which inhibition is half-maximal. A low value points to greater potency in that assay. A word on the DC50: it is the concentration at which degradation of the target reaches its halfway point. A low value points to degradation at low concentration.
